Values of other authors as cited in US20220117942A1, “COMBINATION THERAPY FOR THE TREATMENT OF PROSTATE CANCER” (Zenith Epigenetics Ltd., priority 2018, published 2022).

Tested on: 2nd line mCRPC patients
Details: enzalutamide alone, comparison value

SMILES: CNC(=O)c1ccc(N2C(=S)N(c3ccc(C#N)c(C(F)(F)F)c3)C(=O)C2(C)C)cc1F [enzalutamide]
- expected rPFS: 24-28 weeks
